Results taken from patent US20120010075A1 (priority 2009, published 2012).

System: Phytophthora capsici
Test: In vitro fungitoxicity of hydrazones with and without copper towards Phytophthora capsici (Example 28, Table 3)
Assay type: cell-based
Settings: 0.050 μg/mL; copper-plus AS medium (CuCl2, 50 μM); 48 h

In order of rising “% Inhn Plus copper Observed” value:
1. O=C(N/N=C/c1cc(Br)cc(Br)c1O)c1cc(I)ccc1Br [Example 223]  51.3%
2. O=C(N/N=C/c1cc(Br)cc(Br)c1O)c1cc(I)ccc1Cl [Example 226]  62.1%
3. O=C(N/N=C/c1cc(Cl)cc(Cl)c1O)c1cc(I)ccc1Br [Example 222]  76.8%
4. O=C(N/N=C/c1cc(Cl)cc(Cl)c1O)c1cc(I)ccc1Cl [Example 225]  82.8%
5. Cc1ccc(C(=O)N/N=C/c2cc(Cl)cc(Cl)c2O)c(Br)c1 [Example 228]  86.9%
6. Cc1ccc(C(=O)N/N=C/c2cc(Br)cc(Br)c2O)c(Br)c1 [Example 229]  89.1%
7. O=C(N/N=C/c1ccccc1O)c1cc(I)ccc1Br [Example 221]  92.2%
8. O=C(N/N=C/c1ccccc1O)c1cc(I)ccc1Cl [Example 224]  93.3%
9. Cc1ccc(C(=O)N/N=C/c2ccccc2O)c(Br)c1 [Example 227]  93.4%

Same assay, conditions: Phytophthora capsici; 0.050 μg/mL; copper-minus AS medium; 48 h; read-out: % Inhn Minus copper Observed

In order of falling inhibition of growth at 0.05 µg/mL:
1. O=C(N/N=C/c1ccccc1O)c1cc(I)ccc1Br [Example 221]  12%
2. O=C(N/N=C/c1cc(Cl)cc(Cl)c1O)c1cc(I)ccc1Cl [Example 225]  11.4%
3. O=C(N/N=C/c1cc(Cl)cc(Cl)c1O)c1cc(I)ccc1Br [Example 222]  11.3%
4. Cc1ccc(C(=O)N/N=C/c2cc(Cl)cc(Cl)c2O)c(Br)c1 [Example 228]  10%
5. O=C(N/N=C/c1ccccc1O)c1cc(I)ccc1Cl [Example 224]  6.2%
6. O=C(N/N=C/c1cc(Br)cc(Br)c1O)c1cc(I)ccc1Br [Example 223]  2.5%
7. O=C(N/N=C/c1cc(Br)cc(Br)c1O)c1cc(I)ccc1Cl [Example 226]  2.3%
8. Cc1ccc(C(=O)N/N=C/c2ccccc2O)c(Br)c1 [Example 227]  1.7%
9. Cc1ccc(C(=O)N/N=C/c2cc(Br)cc(Br)c2O)c(Br)c1 [Example 229]  1.6%

System: Phytophthora infestans
Test: not given
Assay type: in vivo, Phytophthora infestans on tomato
Settings: hydrazone 50 ppm + 50 μM CuCl2.2H2O, applied 24 h before inoculation, assessed 7 days after inoculation, tomato

In order of rising “TLB % Control” value:
1. Cc1ccc(C(=O)N/N=C/c2ccccc2O)c(Br)c1 [Example 227]  52.7%
2. O=C(N/N=C/c1cc(Br)cc(Br)c1O)c1cc(I)ccc1Br [Example 223]  54.0%
3. O=C(N/N=C/c1ccccc1O)c1cc(I)ccc1Br [Example 221]  66.0%
4. O=C(N/N=C/c1cc(Cl)cc(Cl)c1O)c1cc(I)ccc1Br [Example 222]  67.3%
5. O=C(N/N=C/c1ccccc1O)c1cc(I)ccc1Cl [Example 224]  67.3%
6. Cc1ccc(C(=O)N/N=C/c2cc(Cl)cc(Cl)c2O)c(Br)c1 [Example 228]  68.4%
7. Cc1ccc(C(=O)N/N=C/c2cc(Br)cc(Br)c2O)c(Br)c1 [Example 229]  70.9%
8. O=C(N/N=C/c1cc(Br)cc(Br)c1O)c1cc(I)ccc1Cl [Example 226]  71.0%
9. O=C(N/N=C/c1cc(Cl)cc(Cl)c1O)c1cc(I)ccc1Cl [Example 225]  78.2%

Same assay, conditions: hydrazone 50 ppm with 50 μM CuCl2.2H2O, applied 24 h before inoculation; assessed 7 days after inoculation; tomato late blight

In the case of O=C(N/N=C/c1cc(C(F)(F)F)cc(Cl)c1O)c1ccccc1O [Example 329], the “TLB % Control” value is reported as 99.0%.

System: Ustilago maydis
Test: In vitro fungitoxicity of hydrazones with and without copper towards Ustilago maydis (Example 29, Table 4)
Assay type: cell-based
Settings: 1 μg/mL; copper-plus medium (CuCl2, 10 μM); 48 h

In the case of O=C(N/N=C/c1cc(C(F)(F)F)cc(Cl)c1O)c1ccccc1O [Example 329], the “% Inhn. Plus copper Observed” value is reported as 41.8%.

Same assay, conditions: Mycosarcoma maydis; 1 μg/mL; copper-minus medium; 48 h; read-out: % Inhn. Minus copper Observed

O=C(N/N=C/c1cc(C(F)(F)F)cc(Cl)c1O)c1ccccc1O [Example 329] showed an inhibition of growth at 1 µg/mL of 16.2%.

System: Leptosphaeria nodorum (LEPTNO)
Test: In vitro fungitoxicity of hydrazones with and without copper towards Leptosphaeria nodorum (Example 26)
Assay type: cell-based
Settings: Parastagonospora nodorum, 72 h, compound 0.05 μg/mL, copper-minus medium, 72 h at 25° C.; read-out: LEPTNO % Inhn. Minus Copper Observed

In order of rising inhibition of growth at 0.05 µg/mL:
1. O=C(N/N=C/c1ccccc1O)c1cc(I)ccc1Br [Example 221]  0%
2. O=C(N/N=C/c1cc(Cl)cc(Cl)c1O)c1cc(I)ccc1Br [Example 222]  0%
3. O=C(N/N=C/c1ccccc1O)c1cc(I)ccc1Cl [Example 224]  0%
4. O=C(N/N=C/c1cc(Cl)cc(Cl)c1O)c1cc(I)ccc1Cl [Example 225]  0%
5. O=C(N/N=C/c1cc(Br)cc(Br)c1O)c1cc(I)ccc1Cl [Example 226]  0%
6. Cc1ccc(C(=O)N/N=C/c2cc(Cl)cc(Cl)c2O)c(Br)c1 [Example 228]  2.6%
7. Cc1ccc(C(=O)N/N=C/c2ccccc2O)c(Br)c1 [Example 227]  5%
8. Cc1ccc(C(=O)N/N=C/c2cc(Br)cc(Br)c2O)c(Br)c1 [Example 229]  6%
9. O=C(N/N=C/c1cc(Br)cc(Br)c1O)c1cc(I)ccc1Br [Example 223]  26.9%

Same assay, conditions: Parastagonospora nodorum, 72 h, copper-minus medium; test compound Concn. 0.05 μg/mL; 72 h at 25° C.; read-out: LEPTNO % Inhn. Minus Copper Observed

For O=C(N/N=C/c1cc(C(F)(F)F)cc(Cl)c1O)c1ccccc1O [Example 329], the inhibition of growth at 0.05 µg/mL was 14%.

Same assay, conditions: compound 0.05 μg/mL, copper-plus medium (CuCl2.2H2O), 72 h at 25° C.

In order of falling “LEPTNO % Inhn. Plus Copper Observed” value:
1. Cc1ccc(C(=O)N/N=C/c2cc(Br)cc(Br)c2O)c(Br)c1 [Example 229]  98.0%
2. O=C(N/N=C/c1cc(Br)cc(Br)c1O)c1cc(I)ccc1Br [Example 223]  97.2%
3. Cc1ccc(C(=O)N/N=C/c2cc(Cl)cc(Cl)c2O)c(Br)c1 [Example 228]  97.0%
4. O=C(N/N=C/c1cc(Cl)cc(Cl)c1O)c1cc(I)ccc1Cl [Example 225]  96.6%
5. Cc1ccc(C(=O)N/N=C/c2ccccc2O)c(Br)c1 [Example 227]  95.0%
6. O=C(N/N=C/c1cc(Cl)cc(Cl)c1O)c1cc(I)ccc1Br [Example 222]  94.5%
7. O=C(N/N=C/c1cc(Br)cc(Br)c1O)c1cc(I)ccc1Cl [Example 226]  94.5%
8. O=C(N/N=C/c1ccccc1O)c1cc(I)ccc1Br [Example 221]  92.4%
9. O=C(N/N=C/c1ccccc1O)c1cc(I)ccc1Cl [Example 224]  91.0%

Same assay, conditions: copper-plus medium (CuCl2 10 μM); test compound Concn. 0.05 μg/mL; 72 h at 25° C.

For O=C(N/N=C/c1cc(C(F)(F)F)cc(Cl)c1O)c1ccccc1O [Example 329], the “LEPTNO % Inhn. Plus Copper Observed” value was 93.5%.

System: Phytophthora infestans
Test: not given
Assay type: in vivo, Phytophthora infestans on tomato (Outdoor Girl)
Settings: CuSO4 10 μM alone, no hydrazone

For O.O.O.O.O.O=S(=O)([O-])[O-].[Cu+2] [CuSO4, CuSO4.5H2O, reference compound], the “% Control of Tomato Late Blight” value was 1.7%.

Same assay, conditions: CuSO4 50 μM alone, no hydrazone

In the case of O.O.O.O.O.O=S(=O)([O-])[O-].[Cu+2] [CuSO4, CuSO4.5H2O, reference compound], the “% Control of Tomato Late Blight” value is reported as 4.8%.

Same assay, conditions: CuSO4 200 μM alone, no hydrazone

For O.O.O.O.O.O=S(=O)([O-])[O-].[Cu+2] [CuSO4, CuSO4.5H2O, reference compound], the “% Control of Tomato Late Blight” value was 49.7%.

Same assay, conditions: CuSO4 400 μM alone, no hydrazone

In the case of O.O.O.O.O.O=S(=O)([O-])[O-].[Cu+2] [CuSO4, CuSO4.5H2O, reference compound], the “% Control of Tomato Late Blight” value is reported as 76.0%.

Same assay, conditions: CuSO4 800 μM alone, no hydrazone

In the case of O.O.O.O.O.O=S(=O)([O-])[O-].[Cu+2] [CuSO4, CuSO4.5H2O, reference compound], the “% Control of Tomato Late Blight” value is reported as 82.9%.

System: Septoria tritici isolate USA-184
Test: In vitro fungitoxicity of hydrazones with and without copper towards Septoria tritici (Example 30, Table 5)
Assay type: cell-based
Settings: Zymoseptoria tritici; 0.05 μg/mL; Colby formula; CuCl2; read-out: % Inhibition Plus copper Predicted

For O=C(N/N=C/c1cc(C(F)(F)F)cc(Cl)c1O)c1ccccc1O [Example 329], the inhibition at 0.05 µg/mL was 14.9%.

Same assay, conditions: Zymoseptoria tritici; 0.05 μg/mL; copper-minus medium; 90 h; read-out: % Inhibition Minus copper Observed

Molecule O=C(N/N=C/c1cc(C(F)(F)F)cc(Cl)c1O)c1ccccc1O [Example 329] has an inhibition at 0.05 µg/mL of 14.9%.

Same assay, conditions: Zymoseptoria tritici; 0.05 μg/mL; copper-plus medium CuCl2; 90 h; read-out: % Inhibition Plus copper Observed

O=C(N/N=C/c1cc(C(F)(F)F)cc(Cl)c1O)c1ccccc1O [Example 329] gave an inhibition at 0.05 µg/mL of 55.1%.

System: not given
Test: not given
Settings: not given

First: O=C(N/N=C/c1ccccc1O)c1cc(I)ccc1Br [Example 221]
Second: O=C(N/N=C/c1ccccc1O)c1cc(I)ccc1Cl [Example 224]
The melting point of the first is lower: 202 to 205 °C for the first, 222 to 226 °C for the second.

First: O=C(N/N=C/c1cc(Cl)cc(Cl)c1O)c1cc(I)ccc1Br [Example 222]
Second: O=C(N/N=C/c1cc(Cl)cc(Cl)c1O)c1cc(I)ccc1Cl [Example 225]
The melting point of the first is higher: 201 to 219 °C for the first, 198 to 201 °C for the second.

First: O=C(N/N=C/c1cc(Br)cc(Br)c1O)c1cc(I)ccc1Br [Example 223]
Second: O=C(N/N=C/c1cc(Br)cc(Br)c1O)c1cc(I)ccc1Cl [Example 226]
The melting point of the first is higher: 215 to 216 °C for the first, 205 to 212 °C for the second.

Compared with Cc1ccc(C(=O)N/N=C/c2ccccc2O)c(Br)c1 [Example 227], Cc1ccc(C(=O)N/N=C/c2cc(Cl)cc(Cl)c2O)c(Br)c1 [Example 228] is higher in melting point: 86 to 122 °C for the first, 240 to 242 °C for the second.

Cc1ccc(C(=O)N/N=C/c2cc(Br)cc(Br)c2O)c(Br)c1 [Example 229] and O=C(N/N=C/c1cc(C(F)(F)F)cc(Cl)c1O)c1ccccc1O [Example 329] cannot be ordered by melting point: 258 to 261 °C for the first, 258 to 260 °C for the second.
